Measurements reported in patent US20130345257A1, “COMPOSITION FOR LUPUS NEPHRITIS AND METHODS OF MAKING AND USING THE SAME” (The Regents of the University of California, priority 2012, published 2013).
Entries after “also recorded” stand apart in the source; their conditions may differ.

Experiments:
[1] = test system: BWF1 mice with high proteinuria (PU^hi); assay: Therapeutic treatment of BWF1 mice after clinical nephritis / high proteinuria (PU^hi); type: in vivo, mouse
Protocol: Therapeutic Groups: a low proteinuria group)(PU^lo) consisted of mice with IgG anti-dsDNA detectable in serum and proteinuria ≦100 mg/dL, and a high proteinuria group (PU^hi) had proteinuria ≧300 mg/dL.
Proteinuria was evaluated weekly using Albustix (Siemens), serum creatinine using a commercial kit (Arbor Assays) and anti-dsDNA IgG antibodies by ELISA as described previously (10). See, e.g., FIGS. 1 and 2.
Kidney specimens of BWF1 mice (37 weeks of age in the prevention group or 7 and 11 weeks after institution of early or late therapies) were embedded in OCT compound and snap frozen. 4-5 μm an sections were air-dried, fixed with cold acetone and incubated with blocking buffer (anti-CD16/CD32 (1/50), 2% normal goat or rat serum, 2% BSA).
Histological analysis of glomerular pathology was done by an investigator blinded to treatment group and included acute inflammatory features (endocapillary hypercellularity, mesangial hypercellularity, cellular necrosis, cellular crescents, and interstitial inflammation), and chronic features (global glomerulosclerosis (GS), focal segmental glomerulosclerosis (FSGS), and interstitial fibrosis or tubular atrophy (IF/TA)). […] The weighted total score of the clinical features was based on this formula: [endocapillary hypercellularity+mesengial hypercellularity+(cellular necrosis*2)+(cellular crescents*2)+interstitial inflammation)/5]+(GS+FSGS+IFTA)/3, with maximum score 5.2. A minimum of 25 glomeruli, of at least 10 mice per group, were scored. Scores from each individual mouse were added and averaged to yield the glomerulonephritis score.

spleen cell subsets [2] = assay: Spleen cell subsets of treated BWF1 mice by flow cytometry; type: in vivo, mouse
Excerpt: Water-gavaged mice constituted the control untreated animals. The spleen cell subsets were identified by the expression of cell surface markers at age 32 weeks as follow: iTregs; nTregs; MΦ: CD11b^−CD103^−; MΦ^2: CD11b^+Ly6C^hiGr-1^−; MΦ^3: CD11b^+Ly6C^intGr-1^−; Gr-1: CD11b ly6C^intGr-1^+; DC: CD11c^+CD103^+; T2: CD19^+CD23^+CD21^+IgM^hi; MZ: CD19^+CD23^−CD21^+IgM^hi. Abbreviations: iTregs=induced T regulatory cells (Tregs). nTregs=natural Tregs. T2=transitional 2 B cells. MZ=marginal zone B cells. MΦ=macrophages. Gr1=granulocytes. Values are mean±SEM. The statistical significance between the groups was determined by analysis of variance (-A-NOVA). ^AP<0.05 versus untreated controls.
Single cell suspensions of splenocytes or kidney cells were prepared using cell strainers (Fisher), followed by red blood cell lysis. Kidney lymphocytes were separated from connective tissue by centrifugation (15 minutes at 400g) in 30% Percoll (GE Healthcare). CD4^+CD25^− cells from spleen and kidney were isolated using the CD4^+CD25^+ regulatory T cell isolation kit according to manufacturer's protocol (Miltenyi). CD11b+ cells were isolated using EasySep mouse CD11b positive selection kit (StemCell Technologies), surface stained for Ly6C and Ly6G prior to sorting myeloid-derived suppressor cells (MDSC) using FACSAria II. Populations were >95% pure by FACS analysis.
Single-cell suspensions from spleen or kidneys were stained for extracellular markers for 20 min at 4° C. in PBS/1% FBS. Intracellular staining for Foxp3 and cytokines was performed using the Foxp3 Fixation/Permeabilization kit according to the manufacturer's protocol (eBioscience). Cells were acquired on a FACS LSR II (BD) and data was analyzed using Flowjo (Tree Star).

spleen cell subsets [3] = assay: as above; type: in vivo, mouse; conditions: for Frequency of cells ± SEM: CD4+ / Frequency of cells ± SEM: CD8+ / Frequency of cells ± SEM: CD11b^+Ly6C^+Ly6G+ / Frequency of cells ± SEM: CD11b^+Ly6C^+Ly6G− / Frequency of cells ± SEM: CD11b^+MDSC−(Mφ) / Frequency of cells ± SEM: CD11c^+CD11b+(DC) / Frequency of cells ± SEM: CD11c^+CD11b− (DC) / Frequency of cells ± SEM: CD4^+CD25^+Foxp3^+ / Frequency of cells ± SEM: CD19+: spleen, LAQ 25 mg/kg, MMF 100 mg/kg
patients = conditions: dose of 2 g daily; dose-dependent; cited from earlier work
[4] = spleen at age 32 weeks, oral gavage from age 11 weeks, LAQ 25 mg/kg 3 days per week, MMF 100 mg/kg 5 days/week
[5] = spleen at age 32 weeks, oral gavage from age 11 weeks, LAQ 25 mg/kg 3 days per week, MMF 100 mg/kg 5 days/week, in % (unit assumed)
[6] = Preventive, 25 weeks after treatment
[7] = Preventive, 25 weeks after treatment, in % (unit assumed)
[8] = Therapeutic (PU^lo), 10 wks after initiation of therapy
[9] = Therapeutic (PU^lo), 10 wks after initiation of therapy, in % (unit assumed)

## COc1c(C)c2c(c(O)c1C/C=C(\C)CCC(=O)OCCN1CCOCC1)C(=O)OC2 [MMF, mycophenolate mofetil, reference compound]
[1]; PU^hi arm, after 8 weeks of treatment, LAQ 25 mg/kg, MMF 100 mg/kg
  Animals with proteinuria reduced to levels below 300 mg/dL: approximately 25%
[1]; PU^hi arm, compared to controls
  FSGS and IF/TA histology scores: significantly lower
[1]; treated after clinical nephritis / PU^hi, LAQ 25 mg/kg 3 times a week, MMF 100 mg/kg 5 times a week, vs water
  Survival: not observed
Spleen cell subsets [2]; compared to the control mice
  Percentage of CD8^+ cells in spleen: decreased; also recorded: reduced
Spleen cell subsets [2]; [4]
  Frequency of cells ± SEM: CD11b^+Ly6C^hiGr-1^− (MΦ^2): 11.81 ± 1.58
  Frequency of cells ± SEM: CD11b^+Ly6C^intGr-1^+ (Gr-1): 25.01 ± 5.32
Spleen cell subsets [2]; [5]
  Frequency of cells ± SEM: CD 19^+: 57.38 ± 3.89
  Frequency of cells ± SEM: CD19^+CD23^−CD21^+IgM^hi (MZ): 3.78 ± 0.99
Spleen cell subsets [2]; vs control mice
  Percentage of CD4^+ T cells in spleen: decreased; also recorded: significantly lower percentage
Spleen cell subsets [3]; mouse, in vivo
  Numbers of MM (splenic PBMC): not
Spleen cell subsets [3]; [4]
  Frequency of cells ± SEM: CD11b^+CD103^− (MΦ^1): 2.26 ± 0.25^A
  Frequency of cells ± SEM: CD11b^+Ly6C^intGr-1^− (MΦ^3): 23.44 ± 1.89
  Frequency of cells ± SEM: CD11c^+CD103^+ (DC): 0.48 ± 0.04^A
Spleen cell subsets [3]; [5]
  Frequency of cells ± SEM: CD19^+CD23^+CD21^+IgM^hi (T2): 36.56 ± 4.92
Spleen cell subsets [3]; [6]
  Frequency of cells ± SEM: CD4+: 26.2 ± 1.3
  Frequency of cells ± SEM: CD8+: 12.4 ± 0.9
  Frequency of cells ± SEM: CD11b^+Ly6C^+Ly6G+: 15. ± 1.6
  Frequency of cells ± SEM: CD11b^+Ly6C^+Ly6G−: 33.4 ± 1.8
  Frequency of cells ± SEM: CD11b^+MDSC−(Mφ): 59.3 ± 2.3
  Frequency of cells ± SEM: CD11c^+CD11b+(DC): 1.0 ± 0.1
  Frequency of cells ± SEM: CD11c^+CD11b− (DC): 4.4 ± 0.3
Spleen cell subsets [3]; [7]
  Frequency of cells ± SEM: CD4^+CD25^+Foxp3^+: 7.9 ± 0.4
  Frequency of cells ± SEM: CD19+: 57.4 ± 3.9
Spleen cell subsets [3]; [8]
  Frequency of cells ± SEM: CD4+: 20.1 ± 0.7
  Frequency of cells ± SEM: CD8+: 13.5 ± 2.1
  Frequency of cells ± SEM: CD11b^+Ly6C^+Ly6G+: 17.5 ± 2.4
  Frequency of cells ± SEM: CD11b^+Ly6C^+Ly6G−: 30.4 ± 2.7
  Frequency of cells ± SEM: CD11b^+MDSC−(Mφ): 40.5 ± 3.1
  Frequency of cells ± SEM: CD11c^+CD11b+(DC): 0.9 ± 0.2
  Frequency of cells ± SEM: CD11c^+CD11b− (DC): 4.1 ± 0.7
Spleen cell subsets [3]; [9]
  Frequency of cells ± SEM: CD4^+CD25^+Foxp3^+: 3.2 ± 0.8
  Frequency of cells ± SEM: CD19+: 45.4 ± 3.3
patients
  Patients with gastrointestinal side effects: up to 20%
